The values below come from article doi:10.1101/2022.12.26.521971v1 (biorxiv, 2022).

The structures appear in SMILES notation.

This experiment has as its target rNTSR1 (wild-type rat Neurotensin Receptor 1) (Rattus norvegicus, UniProt P20789). Nature of the experiment: cell-based. Details: species or system HEK293T.

Sequence of rNTSR1 (wild-type rat Neurotensin Receptor 1) (P20789 whole entry): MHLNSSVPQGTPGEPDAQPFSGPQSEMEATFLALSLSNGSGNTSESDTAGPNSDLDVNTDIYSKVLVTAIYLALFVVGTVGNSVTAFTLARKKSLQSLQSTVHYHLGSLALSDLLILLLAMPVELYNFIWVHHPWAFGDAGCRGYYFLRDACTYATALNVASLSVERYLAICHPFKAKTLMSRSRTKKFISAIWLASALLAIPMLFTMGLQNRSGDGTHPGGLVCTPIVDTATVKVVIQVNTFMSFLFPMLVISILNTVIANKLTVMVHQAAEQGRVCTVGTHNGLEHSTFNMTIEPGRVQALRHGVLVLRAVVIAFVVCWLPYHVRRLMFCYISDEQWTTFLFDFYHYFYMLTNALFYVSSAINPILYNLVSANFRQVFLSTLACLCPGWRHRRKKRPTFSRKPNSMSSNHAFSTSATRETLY

`COc1cc2nc(C3CC3)nc(N3CCN(c4ccccc4OC)CC3)c2cc1OC` [ML314] had a Kb of 776 nM.
